Source: patent US7928063B2, “Analogs of human growth hormone-releasing hormone, their preparation and use” (Instytut Farmaceutyczny, priority 2001, dated 2011)
Read-outs that look alike come from different tables or passages of the source. Square brackets hold non-standard residues; d marks the D form. Peptide text beside a SMILES is read from it. * marks the point of attachment. Desaminotyrosyl = O=C(CCc1ccc(O)cc1)*; hArg = N=C(N)NCCCC[C@H](N)C(=O)O; Agb = N=C(N)NCC[C@H](N)C(=O)O; Agp = N=C(N)NC[C@H](N)C(=O)O; Nle = CCCC[C@H](N)C(=O)O; Orn = NCCC[C@H](N)C(=O)O

Test system: trypsin
Assay: Trypsin digestion test (enzymatic resistance, HPLC)
Assay type: in vitro ADME
Settings: for Resistance to trypsin digestion (in words): after 30 minutes; for remaining at 0.5 h, 0.4 mg/ml / remaining at 1 h, 0.4 mg/ml: isolated enzyme trypsin
Description: The compounds prepared were also tested for enzymatic resistance in the trypsin digestion test. […] Subsequently, a trypsin solution was added (100 μl; 0.02 mg/ml; Serva, 36 U/mg). […] An aliquot (500 μl) was withdrawn and diluted with 0.5 M acetic acid (1 ml), then lyophilized. The material obtained was analyzed by HPLC, using a Knauer system with an Eurospher 100 C18 (4.6×250 mm, 5 micron) column. The following solvent systems were used: A, 0.1% TFA in water; […]

[1] = trypsin, pH 8.5, 37° C., digestion time 30 min., read-out: % Unchanged compound
[2] = trypsin, pH 8.5, 37° C., digestion time 60 min., read-out: % Unchanged compound

| Structure (SMILES) | remaining at 0.5 h, 0.4 mg/ml (pH 8.5) | remaining at 1 h, 0.4 mg/ml (pH 8.5) | Resistance to trypsin digestion (in words) | remaining at 0.5 h, 0.4 mg/ml [1] | remaining at 1 h, 0.4 mg/ml [2] |
| --- | --- | --- | --- | --- | --- |
| CCCC[C@H](NC(=O)[C@@H](NC(=O)[C@H](CC(=O)O)NC(=O)[C@H](CCC(N)=O)NC(=O)[C@H](CC(C)C)NC(=O)[C@H](CC(C)C)NC(=O)[C@H](CCCN)NC(=O)[C@H](CCCCNC(=N)N)NC(=O)[C@H](C)NC(=O)[C@H](CO)NC(=O)[C@H](CC(C)C)NC(=O)[C@H](CCC(N)=O)NC(=O)[C@H](C)NC(=O)[C@H](CC(C)C)NC(=O)[C@@H](NC(=O)[C@H](CCCN)NC(=O)[C@H](CCCCNC(=N)N)NC(=O)[C@H](Cc1ccc(O)cc1)NC(=O)[C@H](CO)NC(=O)[C@H](CC(N)=O)NC(=O)[C@@H](NC(=O)[C@H](Cc1ccccc1)NC(=O)[C@@H](NC(=O)[C@H](C)NC(=O)[C@H](CC(=O)O)NC(=O)[C@H](C)NC(=O)CCc1ccc(O)cc1)[C@@H](C)CC)[C@@H](C)O)C(C)C)[C@@H](C)CC)C(=O)N[C@@H](CC(=O)O)C(=O)N[C@@H](CCCCNC(=N)N)C(N)=O [Compound 2, Dat-Ala-Asp-Ala-Ile-Phe-Thr-Asn-Ser-Tyr^10-hArg-Orn-Val-Leu-Ala-Gln-Leu-Ser-Ala-hArg^20-Orn-Leu-Leu-Gln-Asp-Ile-Nle-Asp-hArg^29-NH2] (Desaminotyrosyl-ADAIFTNSY[hArg][Orn]VLAQLSA[hArg][Orn]LLQDI[Nle]D[hArg]-NH2) | – | – | unchanged | > 99% | > 99% |
| CCCC[C@H](NC(=O)[C@@H](NC(=O)[C@H](CC(=O)O)NC(=O)[C@H](CCC(N)=O)NC(=O)[C@H](CC(C)C)NC(=O)[C@H](CC(C)C)NC(=O)[C@H](CCCCNC(=N)N)NC(=O)[C@H](CCCCNC(=N)N)NC(=O)[C@H](C)NC(=O)[C@H](CO)NC(=O)[C@H](CC(C)C)NC(=O)[C@H](CCC(N)=O)NC(=O)[C@H](C)NC(=O)[C@H](CC(C)C)NC(=O)[C@@H](NC(=O)[C@H](CCCCNC(=N)N)NC(=O)[C@H](CCNC(=N)N)NC(=O)[C@H](Cc1ccc(O)cc1)NC(=O)[C@H](CO)NC(=O)[C@H](CC(N)=O)NC(=O)[C@@H](NC(=O)[C@H](Cc1ccccc1)NC(=O)[C@@H](NC(=O)[C@H](C)NC(=O)[C@H](CC(=O)O)NC(=O)[C@H](C)NC(=O)CCc1ccc(O)cc1)[C@@H](C)CC)[C@@H](C)O)C(C)C)[C@@H](C)CC)C(=O)N[C@@H](CC(=O)O)C(=O)N[C@H](CCCNC(=N)N)C(N)=O [Compound 5, Dat-Ala-Asp-Ala-Ile-Phe-Thr-Asn-Ser-Tyr^10-Gab-hArg-Val-Leu-Ala-Gln-Leu-Ser-Ala-hArg-hArg-Leu-Leu-Gln-Asp-Ile-Nle-Asp-D-Arg-NH2] (Desaminotyrosyl-ADAIFTNSY[Agb][hArg]VLAQLSA[hArg][hArg]LLQDI[Nle]D[dR]-NH2) | – | – | – | 80% | 51% |
| CCCC[C@H](NC(=O)[C@@H](NC(=O)[C@H](CC(=O)O)NC(=O)[C@H](CCC(N)=O)NC(=O)[C@H](CC(C)C)NC(=O)[C@H](CC(C)C)NC(=O)[C@H](CNC(=N)N)NC(=O)[C@H](CCCCNC(=N)N)NC(=O)[C@H](C)NC(=O)[C@H](CO)NC(=O)[C@H](CC(C)C)NC(=O)[C@H](CCC(N)=O)NC(=O)[C@H](C)NC(=O)[C@H](CC(C)C)NC(=O)[C@@H](NC(=O)[C@H](CNC(=N)N)NC(=O)[C@H](CNC(=N)N)NC(=O)[C@H](Cc1ccc(O)cc1)NC(=O)[C@H](CO)NC(=O)[C@H](CC(N)=O)NC(=O)[C@@H](NC(=O)[C@H](Cc1ccccc1)NC(=O)[C@@H](NC(=O)[C@H](C)NC(=O)[C@H](CC(=O)O)NC(=O)[C@H](C)NC(=O)CCc1ccc(O)cc1)[C@@H](C)CC)[C@@H](C)O)C(C)C)[C@@H](C)CC)C(=O)N[C@@H](CC(=O)O)C(=O)N[C@@H](CNC(=N)N)C(N)=O [Compound 8, Dat-Ala-Asp-Ala-Ile-Phe-Thr-Asn-Ser-Tyr^10-Gap-Gap-Val-Leu-Ala-Gln-Leu-Ser-Ala-hArg-Gap-Leu-Leu-Gln-Asp-Ile-Nle-Asp-Gap-NH2] (Desaminotyrosyl-ADAIFTNSY[Agp][Agp]VLAQLSA[hArg][Agp]LLQDI[Nle]D[Agp]-NH2) | – | – | unchanged | > 99% | > 99% |

The next lines start with results.

| remaining at 0.5 h, 0.4 mg/ml (pH 8.5) | remaining at 1 h, 0.4 mg/ml (pH 8.5) | Structure (SMILES) | Resistance to trypsin digestion (in words) | remaining at 0.5 h, 0.4 mg/ml [1] | remaining at 1 h, 0.4 mg/ml [2] |
| --- | --- | --- | --- | --- | --- |
| 86% | 72% | CCCC[C@H](NC(=O)[C@@H](NC(=O)[C@H](CC(=O)O)NC(=O)[C@H](CCC(N)=O)NC(=O)[C@H](CC(C)C)NC(=O)[C@H](CC(C)C)NC(=O)[C@H](CCNC(=N)N)NC(=O)[C@H](CCNC(=N)N)NC(=O)[C@H](C)NC(=O)[C@H](CO)NC(=O)[C@H](CC(C)C)NC(=O)[C@H](CCC(N)=O)NC(=O)[C@H](C)NC(=O)[C@H](CC(C)C)NC(=O)[C@@H](NC(=O)[C@H](CCNC(=N)N)NC(=O)[C@H](CCNC(=N)N)NC(=O)[C@H](Cc1ccc(O)cc1)NC(=O)[C@H](CO)NC(=O)[C@H](CC(N)=O)NC(=O)[C@@H](NC(=O)[C@H](Cc1ccccc1)NC(=O)[C@@H](NC(=O)[C@H](C)NC(=O)[C@H](CC(=O)O)NC(=O)[C@H](C)NC(=O)CCc1ccc(O)cc1)[C@@H](C)CC)[C@@H](C)O)C(C)C)[C@@H](C)CC)C(=O)N[C@@H](CC(=O)O)C(=O)N[C@@H](CCNC(=N)N)C(N)=O [Compound 3, Dat-Ala-Asp-Ala-Ile-Phe-Thr-Asn-Ser-Tyr^10-Gab-Gab-Val-Leu-Ala-Gln-Leu-Ser-Ala-Gab-Gab-Leu-Leu-Gln-Asp-Ile-Nle-Asp-Gab-NH2] (Desaminotyrosyl-ADAIFTNSY[Agb][Agb]VLAQLSA[Agb][Agb]LLQDI[Nle]D[Agb]-NH2) | – | – | – |
| 82% | 67% | CCCC[C@H](NC(=O)[C@@H](NC(=O)[C@H](CC(=O)O)NC(=O)[C@H](CCC(N)=O)NC(=O)[C@H](CC(C)C)NC(=O)[C@H](CC(C)C)NC(=O)[C@H](CCNC(=N)N)NC(=O)[C@H](CCNC(=N)N)NC(=O)[C@H](C)NC(=O)[C@H](CO)NC(=O)[C@H](CC(C)C)NC(=O)[C@H](CCC(N)=O)NC(=O)[C@H](C)NC(=O)[C@H](CC(C)C)NC(=O)[C@@H](NC(=O)[C@H](CCNC(=N)N)NC(=O)[C@H](CCCCNC(=N)N)NC(=O)[C@H](Cc1ccc(O)cc1)NC(=O)[C@H](CO)NC(=O)[C@H](CC(N)=O)NC(=O)[C@@H](NC(=O)[C@H](Cc1ccccc1)NC(=O)[C@@H](NC(=O)[C@H](C)NC(=O)[C@H](CC(=O)O)NC(=O)[C@H](C)NC(=O)CCc1ccc(O)cc1)[C@@H](C)CC)[C@@H](C)O)C(C)C)[C@@H](C)CC)C(=O)N[C@@H](CC(=O)O)C(=O)N[C@@H](CCNC(=N)N)C(N)=O [Compound 4, Dat-Ala-Asp-Ala-Ile-Phe-Thr-Asn-Ser-Tyr^10-hArg-Gab-Val-Leu-Ala-Gln-Leu-Ser-Ala-Gab-Gab-Leu-Leu-Gln-Asp-Ile-Nle-Asp-Gab-NH2] (Desaminotyrosyl-ADAIFTNSY[hArg][Agb]VLAQLSA[Agb][Agb]LLQDI[Nle]D[Agb]-NH2) | – | – | – |
| 85% | 73% | CCCC[C@H](NC(=O)[C@@H](NC(=O)[C@H](CC(=O)O)NC(=O)[C@H](CCC(N)=O)NC(=O)[C@H](CC(C)C)NC(=O)[C@H](CC(C)C)NC(=O)[C@H](CCCCNC(=N)N)NC(=O)[C@H](CCCCNC(=N)N)NC(=O)[C@H](C)NC(=O)[C@H](CO)NC(=O)[C@H](CC(C)C)NC(=O)[C@H](CCC(N)=O)NC(=O)[C@H](C)NC(=O)[C@H](CC(C)C)NC(=O)[C@@H](NC(=O)[C@H](CCNC(=N)N)NC(=O)[C@H](CCCCNC(=N)N)NC(=O)[C@H](Cc1ccc(O)cc1)NC(=O)[C@H](CO)NC(=O)[C@H](CC(N)=O)NC(=O)[C@@H](NC(=O)[C@H](Cc1ccccc1)NC(=O)[C@@H](NC(=O)[C@H](C)NC(=O)[C@H](CC(=O)O)NC(=O)[C@H](C)NC(=O)CCc1ccc(O)cc1)[C@@H](C)CC)[C@@H](C)O)C(C)C)[C@@H](C)CC)C(=O)N[C@@H](CC(=O)O)C(=O)N[C@H](CCCNC(=N)N)C(N)=O [Compound 6, Dat-Ala-Asp-Ala-Ile-Phe-Thr-Asn-Ser-Tyr^10-hArg-Gab-Val-Leu-Ala-Gln-Leu-Ser-Ala-hArg-hArg-Leu-Leu-Gln-Asp-Ile-Nle-Asp-D-Arg-NH2] (Desaminotyrosyl-ADAIFTNSY[hArg][Agb]VLAQLSA[hArg][hArg]LLQDI[Nle]D[dR]-NH2) | – | – | – |
| 75% | 68% | CCCC[C@H](NC(=O)[C@@H](NC(=O)[C@H](CC(=O)O)NC(=O)[C@H](CCC(N)=O)NC(=O)[C@H](CC(C)C)NC(=O)[C@H](CC(C)C)NC(=O)[C@H](CNC(=N)N)NC(=O)[C@H](CNC(=N)N)NC(=O)[C@H](C)NC(=O)[C@H](CO)NC(=O)[C@H](CC(C)C)NC(=O)[C@H](CCC(N)=O)NC(=O)[C@H](C)NC(=O)[C@H](CC(C)C)NC(=O)[C@@H](NC(=O)[C@H](CNC(=N)N)NC(=O)[C@H](CNC(=N)N)NC(=O)[C@H](Cc1ccc(O)cc1)NC(=O)[C@H](CO)NC(=O)[C@H](CC(N)=O)NC(=O)[C@@H](NC(=O)[C@H](Cc1ccccc1)NC(=O)[C@@H](NC(=O)[C@H](C)NC(=O)[C@H](CC(=O)O)NC(=O)[C@H](C)NC(=O)CCc1ccc(O)cc1)[C@@H](C)CC)[C@@H](C)O)C(C)C)[C@@H](C)CC)C(=O)N[C@@H](CC(=O)O)C(=O)N[C@@H](CNC(=N)N)C(N)=O [Compound 7, Dat-Ala-Asp-Ala-Ile-Phe-Thr-Asn-Ser-Tyr^10-Gap-Gap-Val-Leu-Ala-Gln-Leu-Ser-Ala-Gap-Gap-Leu-Leu-Gln-Asp-Ile-Nle-Asp-Gap-NH2] (Desaminotyrosyl-ADAIFTNSY[Agp][Agp]VLAQLSA[Agp][Agp]LLQDI[Nle]D[Agp]-NH2) | – | – | – |
